In paper PMC3823594, “Conformational Changes Underlying Pore Dilation in the Cytoplasmic Domain of Mammalian Inward Rectifier K^+ Channels” (PLoS ONE, 2013):
Residue numbers refer to the chain shown, from its start.

Tests used:
Test in all cases: Two-electrode voltage clamp, ACh-dependent (m2R-dependent) K+ current activation
Format in all cases: cell-based
[1] = biological target: T1, Kir3.2 E236A (Mus musculus, UniProt P48542, E236A); conditions: Kir3.2 E236A with porcine m2R in Xenopus oocytes; −120 mV; Hill equation fit
T1 sequence (P48542 19-425 E236A): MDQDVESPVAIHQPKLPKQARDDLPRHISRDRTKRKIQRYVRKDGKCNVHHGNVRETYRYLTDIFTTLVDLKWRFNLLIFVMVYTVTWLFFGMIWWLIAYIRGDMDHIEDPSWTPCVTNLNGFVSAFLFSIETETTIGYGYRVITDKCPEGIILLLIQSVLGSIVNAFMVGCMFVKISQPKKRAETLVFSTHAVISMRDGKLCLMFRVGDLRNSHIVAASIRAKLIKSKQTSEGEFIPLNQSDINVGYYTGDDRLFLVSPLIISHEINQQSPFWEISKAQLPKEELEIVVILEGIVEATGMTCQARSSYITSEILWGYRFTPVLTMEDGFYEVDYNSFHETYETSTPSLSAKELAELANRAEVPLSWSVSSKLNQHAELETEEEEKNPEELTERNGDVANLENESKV
T1 sequence (P06199 1-466 partner): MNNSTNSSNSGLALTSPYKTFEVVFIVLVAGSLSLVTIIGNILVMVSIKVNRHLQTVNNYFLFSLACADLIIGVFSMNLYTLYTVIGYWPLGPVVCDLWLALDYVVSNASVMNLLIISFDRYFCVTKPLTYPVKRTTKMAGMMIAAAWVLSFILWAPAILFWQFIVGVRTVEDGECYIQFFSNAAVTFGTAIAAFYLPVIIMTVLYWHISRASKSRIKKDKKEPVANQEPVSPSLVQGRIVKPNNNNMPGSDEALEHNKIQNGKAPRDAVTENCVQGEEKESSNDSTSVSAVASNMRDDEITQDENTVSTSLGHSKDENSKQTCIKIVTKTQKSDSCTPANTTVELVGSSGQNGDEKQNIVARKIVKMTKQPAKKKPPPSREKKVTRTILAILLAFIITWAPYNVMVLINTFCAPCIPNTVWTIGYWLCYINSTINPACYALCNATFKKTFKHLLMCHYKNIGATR
From the text: (§1) The mouse Kir3.2d isoform was subjected to functional analyses. The amino acid numbers correspond to the longest mouse Kir3.2 isoform. Point mutations were introduced using the QuikChange site-directed mutagenesis kit (Stratagene, La Jolla, CA), and the presence of the mutations was confirmed by direct DNA sequencing. The care of Xenopus laevis was in accordance with the guideline of the Institute of Experimental Animal Sciences, Osaka University. The protocol was approved by the Animal Experiment Committee of Osaka University. The frogs were deeply anesthetized by immersing in 0.2% tricaine methanesulfonate for 20 min at 18°C. A portion of an ovary lobe was surgically removed and incubated with collagenase to remove follicular cells. The oocytes were injected with the cRNAs of Kir3.2 and porcine m2-muscarinic receptor (m2R), and maintained in modified Barth’s solution at 18°C with daily solution changes. Electrophysiological studies were undertaken 48–72 h later at room temperature (20–25°C). Two-electrode voltage-clamp recordings from oocytes were performed using a GeneClamp 500B amplifier (Axon Instruments, Sunnyvale, CA). […] The bath solution contained 40 mM KCl, 50 mM NaCl, 3 mM MgCl2, 0.15 mM niflumic acid, and 5 mM HEPES-KOH (pH 7.4). The currents were recorded in the absence or presence of various concentrations of acetylcholine (ACh). Ba^2+ (3 mM) was added at the end of the recording to estimate the endogenous leak current. The data are expressed as mean values ± standard error of the mean. For the quantitative estimation of ACh-dependent current responses of the wild-type (WT) and mutant channels, the current amplitudes at the end of test pulses at each ACh concentration ([ACh]) were fitted using the following equation:
(§2) I=min+[(max−min)/(1+(EC50/[ACh])^nH)]
(§3) where I is the current amplitude measured at the [ACh], n H is the Hill coefficient, and EC50 is the concentration that induces 50% of the maximal response. […] The values of n H and EC50 were calculated using a non-linear least-squares best fit (SigmaPlot 9; Systat Software). Statistical analyses were performed by one-way ANOVA with post-hoc tests.

[2] = biological target: T2, Kir3.2 E236N (Mus musculus, UniProt P48542, E236N); conditions: Kir3.2 E236N with porcine m2R in Xenopus oocytes; −120 mV; Hill equation fit
T2 sequence (P48542 19-425 E236N): T1 sequence (P48542 19-425 E236A) with A218N
T2 sequence (P06199 1-466 partner): T1 sequence (P06199 1-466 partner)
From the text: as §1, §2, §3

[3] = biological target: T3, Kir3.2 M313G (Mus musculus, UniProt P48542, I313G); conditions: Kir3.2 M313G with porcine m2R in Xenopus oocytes; −120 mV; Hill equation fit
T3 sequence (P48542 19-425 I313G): T1 sequence (P48542 19-425 E236A) with A218E, I295G
T3 sequence (P06199 1-466 partner): T1 sequence (P06199 1-466 partner)
From the text: as §1, §2, §3

Q: Which Hill coefficient [1] does the source give for `CC(=O)OCC[N+](C)(C)C` [ACh, acetylcholine] here?
A: Its Hill coefficient is 1.12 ± 0.04.

Q: What about the Hill coefficient [2] of the same compound?
A: Its Hill coefficient is 0.82 ± 0.08.

Q: And the Hill coefficient [3]?
A: The Hill coefficient was 0.98 ± 0.07.
